According to the supplement of paper PMC10307832:

Assays:
Test in all cases: relative viability (nuclei count vs DMSO), 5 days (fraction); higher = more cells survive
[1] = compound: COc1cc2ncn(-c3cc(OCc4ccccc4C(F)(F)F)c(C(N)=O)s3)c2cc1OC + CC(=O)Nc1cccc(-n2c(=O)n(C3CC3)c(=O)c3c(Nc4ccc(I)cc4F)n(C)c(=O)c(C)c32)c1 [Trametinib] (partner 0.02 µM)
Procedure, shortened: (§1)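 Relative viability is defined as nuclei in treated wells over nuclei in vehicle wells. Duplicate plates were run and medians reported. Lung cancer cell lines in 1536-well plates were dosed by pin tool one day after seeding, with one drug or with a fixed anchor-drug dose plus five library-drug doses (not always all listed) in √10 steps, and nuclei were counted after 5 days.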

[2] = compound: COc1cc2ncn(-c3cc(OCc4ccccc4C(F)(F)F)c(C(N)=O)s3)c2cc1OC + C[C@@H](Oc1cc(-c2cnn(C3CCNCC3)c2)cnc1N)c1c(Cl)ccc(F)c1Cl [Crizotinib] (partner 1 µM)
Procedure, shortened: as §1

[3] = compound: COc1cc2ncn(-c3cc(OCc4ccccc4C(F)(F)F)c(C(N)=O)s3)c2cc1OC + N=C(N)NC(=N)NCCc1ccccc1 [Phenformin] (partner 250 µM)
Procedure, shortened: as §1

[4] = compound: COc1cc2ncn(-c3cc(OCc4ccccc4C(F)(F)F)c(C(N)=O)s3)c2cc1OC + COc1cccc2cc(-c3nc([C@H]4CC[C@H](C(=O)O)CC4)n4ncnc(N)c34)[nH]c12 [OSI-027] (partner 0.5 µM)
Procedure, shortened: as §1

Cell Line | relative viability ([1]; first compound 0.05 µM) | relative viability ([1]; first compound 0.1581 µM) | relative viability ([1]; first compound 0.5 µM) | relative viability ([1]; first compound 1.581 µM) | relative viability ([1]; first compound 5 µM) | relative viability ([2]; first compound 0.05 µM) | relative viability ([2]; first compound 0.1581 µM) | relative viability ([2]; first compound 0.5 µM) | relative viability ([2]; first compound 1.581 µM) | relative viability ([2]; first compound 5 µM) | relative viability ([3]; first compound 0.05 µM) | relative viability ([3]; first compound 0.1581 µM) | relative viability ([3]; first compound 0.5 µM) | relative viability ([3]; first compound 1.581 µM) | relative viability ([3]; first compound 5 µM) | relative viability ([4]; first compound 0.05 µM) | relative viability ([4]; first compound 0.1581 µM) | relative viability ([4]; first compound 0.5 µM) | relative viability ([4]; first compound 1.581 µM) | relative viability ([4]; first compound 5 µM)
NCI-H322M | 0.503 | 0.486 | 0.47 | 0.463 | 0.384 | 0.741 | 0.94 | 0.724 | 0.419 | 0.466 | 0.739 | 0.869 | 0.631 | 0.363 | 0.303 | 0.512 | 0.541 | 0.462 | 0.319 | 0.239
NCI-H358 | 0.146 | 0.114 | 0.104 | 0.116 | 0.096 | 0.481 | 0.575 | 0.164 | 0.132 | 0.213 | 0.3 | 0.321 | 0.162 | 0.0752 | 0.0692 | 0.744 | 0.726 | 0.549 | 0.0578 | 0.067
NCI-H441 | 0.537 | 0.423 | 0.156 | 0.133 | 0.113 | 0.634 | 0.617 | 0.287 | 0.152 | 0.218 | 0.837 | 0.636 | 0.196 | 0.196 | 0.227 | 0.553 | 0.495 | 0.2 | 0.245 | 0.237
NCI-H460 | 0.247 | 0.101 | 0.102 | 0.0172 | 0.0148 | 1.14 | 0.899 | 0.0648 | 0.0097 | 0.0254 | 0.476 | 0.49 | 0.0454 | 0.0127 | 0.0125 | 0.625 | 0.616 | 0.227 | 0.0107 | 0.0118
NCI-H520 | 0.644 | 0.561 | 0.236 | 0.171 | 0.166 | 0.984 | 0.513 | 0.19 | 0.148 | 0.16 | 0.598 | 0.642 | 0.269 | 0.266 | 0.211 | 0.28 | 0.29 | 0.27 | 0.163 | 0.175
NCI-H596 | 0.469 | 0.695 | 0.802 | 0.439 | 0.297 | 0.959 | 0.965 | 0.991 | 0.814 | 0.401 | 0.81 | 0.811 | 0.466 | 0.397 | 0.275 | 0.758 | 0.759 | 0.429 | 0.222 | 0.253
NCI-H647 | 0.544 | 0.388 | 0.279 | 0.0866 | 0.079 | 1.01 | 0.788 | 0.224 | 0.113 | 0.108 | 0.537 | 0.509 | 0.101 | 0.0685 | 0.069 | 0.687 | 0.561 | 0.536 | 0.0932 | 0.0815
NCI-H650 | 0.954 | 0.722 | 0.6 | 0.204 | 0.489 | 0.714 | 0.684 | 0.4 | 0.15 | 0.289 | 0.511 | 0.458 | 0.374 | 0.171 | 0.205 | 0.503 | 0.63 | 0.383 | 0.213 | 0.189
NCI-H661 | 0.692 | 0.491 | 0.299 | 0.244 | 0.219 | 0.869 | 0.937 | 0.85 | 0.572 | 0.855 | 0.28 | 0.249 | 0.2 | 0.21 | 0.18 | 0.755 | 0.581 | 0.53 | 0.191 | 0.174
NCI-H727 | 0.431 | 0.377 | 0.338 | 0.385 | 0.396 | 0.707 | 0.901 | 0.58 | 0.247 | 0.266 | 0.652 | 0.432 | 0.372 | 0.363 | 0.399 | 0.684 | 0.692 | 0.457 | 0.516 | 0.407
NCI-H838 | 0.518 | 0.523 | 0.412 | 0.192 | 0.0837 | 1.02 | 0.932 | 0.492 | 0.124 | 0.111 | 0.72 | 0.61 | 0.324 | 0.139 | 0.0964 | 0.385 | 0.424 | 0.292 | 0.231 | 0.123
NCI-H1355 | 0.274 | 0.403 | 0.326 | 0.176 | 0.127 | 1.08 | 1.03 | 0.768 | 0.258 | 0.157 | 0.453 | 0.434 | 0.358 | 0.17 | 0.161 | 0.433 | 0.367 | 0.223 | 0.177 | 0.126
NCI-H1437 | 0.577 | 0.376 | 0.19 | 0.205 | 0.234 | 1.03 | 0.812 | 0.659 | 0.164 | 0.101 | 0.352 | 0.223 | 0.117 | 0.123 | 0.12 | 0.958 | 0.79 | 0.298 | 0.142 | 0.118
NCI-H1650 | 0.631 | 0.515 | 0.35 | 0.143 | 0.139 | 1.03 | 1.03 | 0.765 | 0.17 | 0.194 | 0.389 | 0.341 | 0.175 | 0.129 | 0.179 | 0.503 | 0.654 | 0.208 | 0.134 | 0.149
NCI-H1651 | 0.86 | 0.788 | 0.755 | 0.593 | 0.702 | 0.9 | 0.84 | 0.775 | 0.631 | 0.332 | 0.318 | 0.304 | 0.132 | 0.102 | 0.117 | 0.762 | 0.737 | 0.594 | 0.145 | 0.0994
NCI-H1666 | 0.837 | 0.776 | 0.653 | 0.455 | 0.41 | 0.917 | 0.913 | 0.606 | 0.289 | 0.326 | 0.591 | 0.554 | 0.337 | 0.315 | 0.299 | 0.895 | 0.778 | 0.543 | 0.362 | 0.366
